Source: patent US12285431B2, “Treatment of Rb-negative tumors using topoisomerase inhibitors in combination with cyclin dependent kinase 4/6 inhibitors” (G1 Therapeutics, Inc., priority 2014, dated 2025)

Assays:
[1] = tested on: MCF7 (breast adenocarcinoma, Rb-positive); test: Cellular proliferation assay (CellTiter-Glo), MCF7; type: cell-based; details: Homo sapiens, MCF7, 144 h, cell viability after six days
Protocol: (§1) Further cellular proliferation assays were conducted using the following cancer cell lines: MCF7 (breast adenocarcinoma—Rb-positive), ZR-75-1 (breast ductal carcinoma—Rb-positive), H69 (human small cell lung cancer—Rb-negative) cells, or A2058 (human metastatic melanoma cells—Rb-negative). These cells were seeded in Costar (Tewksbury, Massachusetts) 3093 96 well tissue culture treated white walled/clear bottom plates. Cells were treated with the compounds of Table 1 as nine point dose response dilution series from 10 uM to 1 nM. Cells were exposed to compounds and then cell viability was determined after either four (H69) or six (MCF7, ZR75-1, A2058) days as indicated using the CellTiter-Glo® luminescent cell viability assay (CTG; Promega, Madison, Wisconsin, United States of America) following the manufacturer's recommendations. Plates were read on BioTek (Winooski, Vermont) Syngergy2 multi-mode plate reader. The Relative Light Units (RLU) were plotted as a result of variable molar concentration and data was analyzed using Graphpad (LaJolla, California) Prism 5 statistical software to determine the EC50 for each compound.

[2] = tested on: H69 (human small cell lung cancer, Rb-negative) cells; test: Cellular proliferation assay (CellTiter-Glo), H69; type: cell-based; details: NCI-H69, 96 h, cell viability after four days
Protocol: as §1

CDK4/CyclinD1 = CDK4/CyclinD1 (Homo sapiens, UniProt P11802); test: CDK4/cyclinD1 kinase assay (Nanosyn, Caliper microfluidic kinase detection); type: biochemical; details: Table 2; 12-point dose-response, ATP at Km (200 μM), 10 hr; read-out: CDK4/CycD1 IC50
Chain of CDK4/CyclinD1 (P11802 whole entry, species assumed): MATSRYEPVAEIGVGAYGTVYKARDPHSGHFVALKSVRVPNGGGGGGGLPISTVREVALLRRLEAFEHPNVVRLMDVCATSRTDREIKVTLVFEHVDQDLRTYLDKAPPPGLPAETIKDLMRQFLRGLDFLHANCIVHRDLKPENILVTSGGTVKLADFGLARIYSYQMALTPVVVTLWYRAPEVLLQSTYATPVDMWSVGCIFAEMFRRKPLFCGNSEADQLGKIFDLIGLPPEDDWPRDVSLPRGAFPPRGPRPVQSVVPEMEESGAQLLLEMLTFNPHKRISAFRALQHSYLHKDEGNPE
Chain of CDK4/CyclinD1 (P24385 whole entry partner, species assumed): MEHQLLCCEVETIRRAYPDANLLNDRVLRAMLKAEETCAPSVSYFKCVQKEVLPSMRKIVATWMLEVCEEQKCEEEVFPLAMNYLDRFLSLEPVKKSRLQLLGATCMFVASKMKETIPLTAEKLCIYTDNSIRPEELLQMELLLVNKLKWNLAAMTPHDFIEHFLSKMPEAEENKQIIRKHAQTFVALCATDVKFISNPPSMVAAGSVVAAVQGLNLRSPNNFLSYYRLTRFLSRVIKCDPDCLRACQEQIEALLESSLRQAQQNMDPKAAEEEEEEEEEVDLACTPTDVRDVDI
Protocol: The assays were performed using microfluidic kinase detection technology (Caliper Assay Platform). The compounds were tested in 12-point dose-response format in singlicate at Km for ATP. Phosphoacceptor substrate peptide concentration used was 1 μM for all assays and Staurosporine was used as the reference compound for all assays. Specifics of each assay are as described below:
CDK4/CyclinD1: Enzyme concentration: 1 nM; ATP concentration: 200 μM; Incubation time: 10 hr.

[3] = tested on: ZR-75-1 (breast ductal carcinoma, Rb-positive); test: Cellular proliferation assay (CellTiter-Glo), ZR-75-1; type: cell-based; details: Homo sapiens, ZR-75-1, 144 h, cell viability after six days, read-out: ZR75-1 Cellular EC50
Protocol: as §1

HS68 cells = test: G1 arrest (cellular G1 and S-phase) assay, propidium iodide flow cytometry; type: cell-based, human; details: Homo sapiens, Hs68, HS68 cells
Protocol: HS68 cells (human skin fibroblast cell line (Rb-positive)) were stained with propidium iodide staining solution and run on Dako Cyan Flow Cytometer. The fraction of cells in G0-G1 DNA cell cycle versus the fraction in S-phase DNA cell cycle was determined using FlowJo 7.2.2 analysis.
The compounds listed in Table 1 were tested for their ability to arrest HS68 cells at the G1 phase of the cell cycle.

[4] = tested on: A2058 (human metastatic melanoma cells, Rb-negative); test: Cellular proliferation assay (CellTiter-Glo), A2058; type: cell-based; details: A2058, 144 h, cell viability after six days
Protocol: as §1

[5] = Mouse pharmacokinetics (oral gavage / intravenous); type: in vivo, mice; details: for AUC 0-inf (uM * h) i.v.: 10 mg/kg intravenous injection; for AUC (uM * h) p.o. / Cmax / Tmax (h) p.o. / t1/2 (h) p.o.: 30 mg/kg oral gavage

Compound	EC50 [1]	EC50 [2]	IC50 (CDK4/CyclinD1)	EC50 [3]	EC50 (HS68 cells)	EC50 [4]	AUC 0-inf (uM * h) i.v. [5]	AUC (uM * h) p.o. [5]	Cmax [5]	Tmax (h) p.o. [5]	t1/2 (h) p.o. [5]	t1/2 (h) p.o. ([5]; 30 mg/kg)
CC(C)N1CCN(c2ccc(Nc3ncc4cc5n(c4n3)C3(CCCCC3)CNC5=O)nc2)C[C@@H]1C [AA]	47 nM	> 3000 nM	0.5 nM	47 nM	70 nM							
C[C@H](O)CN1CCN(c2ccc(Nc3ncc4cc5n(c4n3)C3(CCCCC3)CNC5=O)nc2)CC1 [A]	75 nM	> 3000 nM	4.2 nM	44 nM	110 nM							
CCN(CC)C1CCN(c2ccc(Nc3ncc4cc5n(c4n3)C3(CCCCC3)CNC5=O)nc2)CC1 [CC]	50 nM	> 3000 nM	1.6 nM	38 nM	90 nM	> 3000 nM						
O=C1NCC2(CCCCC2)n2c1cc1cnc(Nc3ccc(N4CCNCC4)cn3)nc12 [Compound Q]	49 nM	> 3000 nM		35 nM	100 nM	2610 nM	0.95 µM·h	0.15 µM·h	0.16 µM	0.5 h	0.8 h	
O=C1NCC2(CCCCC2)n2c1cc1cnc(Nc3ccc(N4CCC(N5CCOCC5)CC4)cn3)nc12 [Compound U]	70 nM	> 3000 nM		59 nM	25 nM	> 3000 nM	0.76 µM·h	3.3 µM·h	4.2 µM	0.5 h		3 h
CN1CCN(c2ccc(Nc3ncc4cc5n(c4n3)C3(CCCCC3)CNC5=O)nc2)CC1(C)C [D]	57 nM	2910 nM	0.9 nM	46 nM	50 nM	1670 nM						
CC(C)C1CN(c2ccc(Nc3ncc4cc5n(c4n3)C3(CCCCC3)CNC5=O)nc2)CCN1 (stereo not shown) [E]	53 nM	2580 nM	1 nM	62 nM	75 nM	1370 nM						
CC1(C)CN(c2ccc(Nc3ncc4cc5n(c4n3)C3(CCCCC3)CNC5=O)nc2)CCN1CC1CC1 [H]	85 nM	2040 nM	1.5 nM	120 nM	85 nM	1310 nM						
CC(C)N1CCN(C(=O)c2ccc(Nc3ncc4cc5n(c4n3)C3(CCCCC3)CNC5=O)nc2)CC1 [II]	94 nM	> 3000 nM	2 nM	33 nM	40 nM	> 3000 nM						
CC1(C)CN(c2ccc(Nc3ncc4cc5n(c4n3)C3(CCCCC3)CNC5=O)nc2)CCN1 [I]	61 nM	2950 nM	2 nM	40 nM	80 nM	1060 nM						
C[C@@H]1CN(c2ccc(Nc3ncc4cc5n(c4n3)C3(CCCCC3)CNC5=O)nc2)CCN1C[C@@H](C)O [J]	70 nM	> 3000 nM		82 nM	110 nM	> 3000 nM						
CCOCCN1CCN(c2ccc(Nc3ncc4cc5n(c4n3)C3(CCCC3)CNC5=O)nc2)CC1 [MMM]	134 nM	> 3000 nM		141 nM	200 nM	> 3000 nM						
C[C@@H]1CN(c2ccc(Nc3ncc4cc5n(c4n3)C3(CCCCC3)CNC5=O)nc2)C[C@H](C)N1C[C@@H](C)O [MM]	73 nM	> 3000 nM	1.8 nM	77 nM	100 nM	> 3000 nM						
